Data taken from ChEMBL document CHEMBL5728485, “Biaryloxy derivatives as TTX-S blockers” (2021).

Biological target: Sodium channel protein type 9 subunit alpha (Homo sapiens, UniProt Q15858)
Test: EFS-FRET Assay: This screen is used to determine the effects of compounds on human Nav1.7 channels, utilizing electrical field stimulation (EFS) system in 96-well plate format on FDSS (Hamamatsu Photonics) platform. The changes of membrane potential are monitored with FRET dye pair, DiSBAC2(3) and PTS 18.

Sequence of Sodium channel protein type 9 subunit alpha (Q15858 whole entry): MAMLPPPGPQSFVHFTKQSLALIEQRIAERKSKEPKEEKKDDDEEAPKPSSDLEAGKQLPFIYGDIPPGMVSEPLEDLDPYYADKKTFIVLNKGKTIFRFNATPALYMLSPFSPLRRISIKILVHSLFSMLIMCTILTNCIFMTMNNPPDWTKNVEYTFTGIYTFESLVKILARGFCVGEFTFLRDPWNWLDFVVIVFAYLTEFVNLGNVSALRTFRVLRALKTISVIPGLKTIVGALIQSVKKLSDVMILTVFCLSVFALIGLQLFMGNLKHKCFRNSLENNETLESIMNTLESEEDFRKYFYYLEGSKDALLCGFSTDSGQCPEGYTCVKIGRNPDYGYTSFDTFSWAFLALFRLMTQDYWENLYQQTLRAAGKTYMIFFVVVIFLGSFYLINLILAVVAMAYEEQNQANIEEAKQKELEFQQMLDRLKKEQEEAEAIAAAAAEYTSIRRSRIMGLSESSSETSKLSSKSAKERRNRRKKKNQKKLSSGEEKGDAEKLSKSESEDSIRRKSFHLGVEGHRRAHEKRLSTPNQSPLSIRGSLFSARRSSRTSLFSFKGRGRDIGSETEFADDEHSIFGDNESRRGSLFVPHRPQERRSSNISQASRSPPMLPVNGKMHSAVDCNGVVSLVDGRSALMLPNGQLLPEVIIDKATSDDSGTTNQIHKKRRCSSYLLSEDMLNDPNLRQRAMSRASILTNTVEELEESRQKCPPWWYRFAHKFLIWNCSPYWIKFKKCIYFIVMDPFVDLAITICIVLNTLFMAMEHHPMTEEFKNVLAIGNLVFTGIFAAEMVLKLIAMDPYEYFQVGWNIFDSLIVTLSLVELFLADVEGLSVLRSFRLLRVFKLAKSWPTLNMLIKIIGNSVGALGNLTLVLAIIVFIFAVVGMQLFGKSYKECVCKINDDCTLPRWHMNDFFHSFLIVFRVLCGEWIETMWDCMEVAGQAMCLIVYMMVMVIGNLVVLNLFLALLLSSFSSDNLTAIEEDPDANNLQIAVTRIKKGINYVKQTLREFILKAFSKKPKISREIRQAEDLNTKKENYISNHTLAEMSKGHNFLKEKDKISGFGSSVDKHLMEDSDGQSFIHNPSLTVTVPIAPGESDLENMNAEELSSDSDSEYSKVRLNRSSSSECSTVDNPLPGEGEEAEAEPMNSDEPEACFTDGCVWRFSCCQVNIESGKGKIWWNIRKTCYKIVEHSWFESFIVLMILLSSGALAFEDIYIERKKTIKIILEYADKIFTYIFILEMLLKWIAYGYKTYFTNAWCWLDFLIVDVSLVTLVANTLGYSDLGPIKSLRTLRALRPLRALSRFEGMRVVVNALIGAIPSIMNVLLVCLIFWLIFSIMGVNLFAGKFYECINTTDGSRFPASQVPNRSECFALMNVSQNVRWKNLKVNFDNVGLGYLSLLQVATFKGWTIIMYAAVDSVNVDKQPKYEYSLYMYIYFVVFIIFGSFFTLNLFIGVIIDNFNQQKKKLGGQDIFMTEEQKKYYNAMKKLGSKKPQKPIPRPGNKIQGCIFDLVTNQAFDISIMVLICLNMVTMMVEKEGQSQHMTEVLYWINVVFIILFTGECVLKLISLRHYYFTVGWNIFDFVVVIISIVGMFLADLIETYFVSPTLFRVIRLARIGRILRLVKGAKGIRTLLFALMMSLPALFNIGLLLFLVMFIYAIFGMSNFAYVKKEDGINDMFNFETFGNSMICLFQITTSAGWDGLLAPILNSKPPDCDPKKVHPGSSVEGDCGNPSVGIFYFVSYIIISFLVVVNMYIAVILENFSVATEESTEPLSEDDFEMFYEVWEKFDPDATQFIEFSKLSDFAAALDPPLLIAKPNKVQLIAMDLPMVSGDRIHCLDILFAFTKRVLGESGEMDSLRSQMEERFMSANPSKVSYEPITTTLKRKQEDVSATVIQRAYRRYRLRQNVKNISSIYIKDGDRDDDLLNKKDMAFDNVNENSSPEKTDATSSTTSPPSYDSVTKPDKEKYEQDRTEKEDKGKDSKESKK

IC50, < 0.5 µM:
Cc1c(OCC2CC2)ncnc1-c1cc(F)cc(OCc2ccc(C(=O)NS(C)(=O)=O)cc2)c1
CS(=O)(=O)NC(=O)c1ccc(COc2cccc(-c3ccc(OCC4CCCC4)nc3)c2)cc1
CS(=O)(=O)NC(=O)c1ccc(COc2cccc(-c3cnc(OCC4CCC4)c(CO)c3)c2)cc1
Cn1cc(-c2cc(OCc3ccc(C(=O)NS(C)(=O)=O)cc3)cc(-c3ccc(OCC4CC4)nc3)c2)cn1
Cc1c(OCC2CC2)ccnc1-c1cccc(OCc2ccc(C(=O)NS(C)(=O)=O)cc2F)c1
CS(=O)(=O)NC(=O)c1ccc(COc2cccc(-c3cc(OCC4CC4)ncn3)c2)cc1
CS(=O)(=O)NC(=O)c1ccc(COc2cccc(-c3ccc(OCC4CC4)nc3)c2)nc1
CS(=O)(=O)NC(=O)c1ccc(COc2cc(F)cc(-c3ccnc(OCC4CC4)c3)c2)cc1
CS(=O)(=O)NC(=O)c1ccc(COc2cc(F)cc(-c3ccc(OCC4CC4)cn3)c2)cc1
CS(=O)(=O)NC(=O)c1ccc(COc2cc(F)cc(-c3cncc(OCC4CC4)n3)c2)cc1
CS(=O)(=O)NC(=O)c1ccc(COc2cccc(-c3cnc(OCC4CCC4)c(CO)c3)c2)c(F)c1
Cc1nc(OCC2CCC2)ccc1-c1cc(F)cc(OCc2ccc(C(=O)NS(C)(=O)=O)cc2)c1
CS(=O)(=O)NC(=O)c1ccc(COc2cccc(-c3ncc(OCC4CC4)cc3F)c2)cc1
CS(=O)(=O)NC(=O)c1ccc(COc2cc(Cl)cc(-c3ccc(OCC4CC4)nc3)c2)cc1
CS(=O)(=O)NC(=O)c1ccc(COc2cccc(-c3cnc(OCC4CC4)cn3)c2)cc1
CS(=O)(=O)NC(=O)c1ccc(COc2cccc(-c3cncc(OCC4CC4)n3)c2)c(F)c1
CS(=O)(=O)NC(=O)c1ccc(COc2cccc(-c3cncc(OCC4CC4)c3)c2)cc1
Cc1cc(OCc2ccc(C(=O)NS(=O)(=O)C3CC3)cc2F)cc(-c2ccc(OCC3CC3)nc2)c1
CN(CC1CC1)c1ncc(-c2cccc(OCc3ccc(C(=O)NS(C)(=O)=O)cc3F)c2)cn1
Cc1c(-c2cc(OCc3ccc(C(=O)NS(C)(=O)=O)cc3F)ccc2F)ccnc1OCC1CC1
Cc1nc(OCC2CC2)ccc1-c1cc(F)cc(OCc2ccc(C(=O)NS(C)(=O)=O)cc2)c1
CS(=O)(=O)NC(=O)c1ccc(COc2cccc(-c3ccc(OCC4CC4)cc3)c2)cc1
CS(=O)(=O)NC(=O)c1ccc(COc2cccc(-c3ccc(OCC4CC4)nc3)c2)c(C#N)c1
CS(=O)(=O)NC(=O)c1ccc(COc2cc(F)cc(-c3ccc(OCC4CC4)nc3)c2)nc1
CS(=O)(=O)NC(=O)c1ccc(COc2cccc(-c3ccnc(OCC4CC4)c3)c2)c(F)c1
Cc1c(-c2cccc(OCc3ccc(C(=O)NS(C)(=O)=O)cc3F)c2)ccnc1OCC1CC1
Cc1cc(OCC2CC2)cnc1-c1cc(F)cc(OCc2ccc(C(=O)NS(C)(=O)=O)cc2)c1
CS(=O)(=O)NC(=O)c1ccc(COc2cccc(-c3cnc(OCC4CC4)nc3)c2)c(F)c1
CS(=O)(=O)NC(=O)c1ccc(COc2cccc(-c3ccc(OCC4CC4)cn3)c2)c(F)c1
CS(=O)(=O)NC(=O)c1ccc(COc2cccc(-c3ccc(OCC4CC4)nc3)c2)cc1F
CS(=O)(=O)NC(=O)c1ccc(COc2cccc(-c3cnc(OCC4CC4)c(Cl)c3)c2)c(F)c1
CS(=O)(=O)NC(=O)c1cc(F)c(COc2cccc(-c3ccc(OCC4CC4)nc3)c2)c(F)c1
